PubChem BioAssay AID2060498 (Molecular Pharmacology Branch, DTP, NCI, 2025)
pIC50: −log10 of the molar value.

System: 171881-019-R-J1-PDC tumor spheroids, viability
Assay: Anticancer human tumor 171881-019-R-J1-PDC patient-derived invasive breast carcinoma cell line growth inhibition [GQUAD]
Settings: spheroids with HUVEC and MSC; for pIC50: curve of first compound; for viability, T/C: stronger effect = lower value
In short: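 Multi-cell-type spheroids of tumor cells with HUVEC and mesenchymal stem cells, treated with drug combinations. Concentrations descend in half-log steps from near clinical Cmax, or from 10 microM where Cmax is unknown; viability read-out.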

[1] = second compound 0.0316 µM, first compound 0.0316 µM
[2] = second compound 0.0316 µM, first compound 0.316 µM
[3] = second compound 0.1 µM, first compound 0.0316 µM
[4] = second compound 0.1 µM, first compound 0.316 µM
[5] = second compound 0.316 µM, first compound 0.0316 µM
[6] = second compound 0.316 µM, first compound 0.316 µM
[7] = second compound 1 µM, first compound 0.0316 µM
[8] = second compound 1 µM, first compound 0.316 µM
[9] = second compound 3.16 µM, first compound 0.0316 µM
[10] = second compound 3.16 µM, first compound 0.316 µM
[11] = second compound 10 µM, first compound 0.0316 µM
[12] = second compound 10 µM, first compound 0.316 µM
[13] = second compound 0.0316 µM, first compound 0.1 µM
[14] = second compound 0.0316 µM, first compound 1 µM
[15] = second compound 0.0316 µM, first compound 3.16 µM
[16] = second compound 0.0316 µM, first compound 10 µM
[17] = second compound 0.1 µM, first compound 0.1 µM
[18] = second compound 0.1 µM, first compound 1 µM
[19] = second compound 0.1 µM, first compound 3.16 µM
[20] = second compound 0.1 µM, first compound 10 µM
[21] = second compound 0.316 µM, first compound 0.1 µM
[22] = second compound 0.316 µM, first compound 1 µM
[23] = second compound 0.316 µM, first compound 3.16 µM
[24] = second compound 0.316 µM, first compound 10 µM
[25] = second compound 1 µM, first compound 0.1 µM
[26] = second compound 1 µM, first compound 1 µM
[27] = second compound 1 µM, first compound 3.16 µM
[28] = second compound 1 µM, first compound 10 µM
[29] = second compound 3.16 µM, first compound 0.1 µM
[30] = second compound 3.16 µM, first compound 1 µM
[31] = second compound 3.16 µM, first compound 3.16 µM
[32] = second compound 3.16 µM, first compound 10 µM
[33] = second compound 10 µM, first compound 0.1 µM
[34] = second compound 10 µM, first compound 1 µM
[35] = second compound 10 µM, first compound 3.16 µM
[36] = second compound 10 µM, first compound 10 µM
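Note: spheroids exposed to compounds for 7 days.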
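Throughout, for viability, T/C: 100% = DMSO vehicle control viability.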

Molecule `CC[C@@]1(O)C(=O)OCc2c1cc1n(c2=O)Cc2cc3c(CN(C)C)c(O)ccc3nc2-1` + CN(C)c1ccc(Nc2c3ccc(NC(=O)CCN4CCCC4)cc3nc3cc(NC(=O)CCN4CCCC4)ccc23)cc1 has a pIC50 (second compound 0.0316 µM) of 6.59, a pIC50 (second compound 0.1 µM) of 6.60 and a pIC50 (second compound 0.316 µM) of 6.72. The pIC50 (second compound 1 µM) was over 9.00, the pIC50 (second compound 3.16 µM) was over 9.00 and the pIC50 (second compound 10 µM) was over 9.00. It also gave a viability, T/C (second compound 0.0316 µM, first compound 0.000999 µM) of 110%, a viability, T/C (second compound 0.0316 µM, first compound 0.00316 µM) of 108% and a viability, T/C (second compound 0.0316 µM, first compound 0.00999 µM) of 105%. It also gave a viability, T/C [1] of 99.5%, a viability, T/C (second compound 0.0316 µM, first compound 0.0999 µM) of 57.8% and a viability, T/C [2] of 48.3%. It also gave a viability, T/C (second compound 0.1 µM, first compound 0.000999 µM) of 110%, a viability, T/C (second compound 0.1 µM, first compound 0.00316 µM) of 112% and a viability, T/C (second compound 0.1 µM, first compound 0.00999 µM) of 93.9%. It also gave a viability, T/C [3] of 115%, a viability, T/C (second compound 0.1 µM, first compound 0.0999 µM) of 61.9% and a viability, T/C [4] of 47%. For the same molecule, the viability, T/C (second compound 0.316 µM, first compound 0.000999 µM) was 85%, the viability, T/C (second compound 0.316 µM, first compound 0.00316 µM) was 85.3% and the viability, T/C (second compound 0.316 µM, first compound 0.00999 µM) was 63.3%. It also gave a viability, T/C [5] of 70.7%, a viability, T/C (second compound 0.316 µM, first compound 0.0999 µM) of 60.6% and a viability, T/C [6] of 42.4%. It also gave a viability, T/C (second compound 1 µM, first compound 0.000999 µM) of 23.9%, a viability, T/C (second compound 1 µM, first compound 0.00316 µM) of 14.9% and a viability, T/C (second compound 1 µM, first compound 0.00999 µM) of 17.4%. For the same molecule, the viability, T/C [7] was 11.6%, the viability, T/C (second compound 1 µM, first compound 0.0999 µM) was 10.3% and the viability, T/C [8] was 14.4%. The viability, T/C (second compound 3.16 µM, first compound 0.000999 µM) was 2.23%, the viability, T/C (second compound 3.16 µM, first compound 0.00316 µM) was 1.91% and the viability, T/C (second compound 3.16 µM, first compound 0.00999 µM) was 2.49%. For the same molecule, the viability, T/C [9] was 1.45%, the viability, T/C (second compound 3.16 µM, first compound 0.0999 µM) was 2.03% and the viability, T/C [10] was 1.84%. For the same molecule, the viability, T/C (second compound 10 µM, first compound 0.000999 µM) was 0.21%, the viability, T/C (second compound 10 µM, first compound 0.00316 µM) was 1.05% and the viability, T/C (second compound 10 µM, first compound 0.00999 µM) was 0.53%. For the same molecule, the viability, T/C [11] was 0.24%, the viability, T/C (second compound 10 µM, first compound 0.0999 µM) was 0.6% and the viability, T/C [12] was 0.58%.

Molecule `COc1cc(C2c3cc4c(cc3C(OC3OC5COC(C)OC5C(O)C3O)C3COC(=O)C23)OCO4)cc(OC)c1O` (stereo unspecified) + CN(C)c1ccc(Nc2c3ccc(NC(=O)CCN4CCCC4)cc3nc3cc(NC(=O)CCN4CCCC4)ccc23)cc1 has a pIC50 (second compound 0.0316 µM) of 5.34, a pIC50 (second compound 0.1 µM) of 5.46 and a pIC50 (second compound 0.316 µM) of 5.58. The pIC50 (second compound 1 µM) was over 7.50, the pIC50 (second compound 3.16 µM) was over 7.50 and the pIC50 (second compound 10 µM) was over 7.50. It also gave a viability, T/C [1] of 114%, a viability, T/C [13] of 103% and a viability, T/C [2] of 94.9%. The viability, T/C [14] was 79%, the viability, T/C [15] was 51.7% and the viability, T/C [16] was 41.2%. For the same molecule, the viability, T/C [3] was 106%, the viability, T/C [17] was 108% and the viability, T/C [4] was 88.9%. It also gave a viability, T/C [18] of 76%, a viability, T/C [19] of 49.8% and a viability, T/C [20] of 37.9%. For the same molecule, the viability, T/C [5] was 86.4%, the viability, T/C [21] was 87.5% and the viability, T/C [6] was 69.2%. For the same molecule, the viability, T/C [22] was 56.5%, the viability, T/C [23] was 54.4% and the viability, T/C [24] was 30.3%. The viability, T/C [7] was 25.3%, the viability, T/C [25] was 15.9% and the viability, T/C [8] was 17.2%. For the same molecule, the viability, T/C [26] was 11.2%, the viability, T/C [27] was 10.6% and the viability, T/C [28] was 13.6%. The viability, T/C [9] was 1.86%, the viability, T/C [29] was 2.35% and the viability, T/C [10] was 2.46%. For the same molecule, the viability, T/C [30] was 1.99%, the viability, T/C [31] was 2.23% and the viability, T/C [32] was 1.76%. It also gave a viability, T/C [11] of 0.27%, a viability, T/C [33] of 0.23% and a viability, T/C [12] of 0.79%. For the same molecule, the viability, T/C [34] was 0.49%, the viability, T/C [35] was 0.45% and the viability, T/C [36] was 0.34%.

With `Nc1ccn(C2OC(CO)C(O)C2(F)F)c(=O)n1` (stereo unspecified) + CN(C)c1ccc(Nc2c3ccc(NC(=O)CCN4CCCC4)cc3nc3cc(NC(=O)CCN4CCCC4)ccc23)cc1 the pIC50 (second compound 0.0316 µM) was over 7.50, the pIC50 (second compound 0.1 µM) was over 7.50 and the pIC50 (second compound 0.316 µM) was over 7.50. It also gave a pIC50 (second compound 1 µM) of over 7.50, a pIC50 (second compound 3.16 µM) of over 7.50 and a pIC50 (second compound 10 µM) of over 7.50. For the same molecule, the viability, T/C [1] was 35.4%, the viability, T/C [13] was 35.6% and the viability, T/C [2] was 44.6%. For the same molecule, the viability, T/C [14] was 51%, the viability, T/C [15] was 45.9% and the viability, T/C [16] was 47.7%. For the same molecule, the viability, T/C [3] was 33.7%, the viability, T/C [17] was 38% and the viability, T/C [4] was 46.6%. The viability, T/C [18] was 53%, the viability, T/C [19] was 45.6% and the viability, T/C [20] was 46%. The viability, T/C [5] was 33%, the viability, T/C [21] was 36% and the viability, T/C [6] was 39.9%. It also gave a viability, T/C [22] of 38.5%, a viability, T/C [23] of 47.2% and a viability, T/C [24] of 38.4%. It also gave a viability, T/C [7] of 12.5%, a viability, T/C [25] of 8.63% and a viability, T/C [8] of 13.7%. It also gave a viability, T/C [26] of 11.8%, a viability, T/C [27] of 15% and a viability, T/C [28] of 16.6%. It also gave a viability, T/C [9] of 2.29%, a viability, T/C [29] of 1.62% and a viability, T/C [10] of 2.47%. For the same molecule, the viability, T/C [30] was 1.2%, the viability, T/C [31] was 2.41% and the viability, T/C [32] was 2.49%. It also gave a viability, T/C [11] of 0.27%, a viability, T/C [33] of 0.9% and a viability, T/C [12] of 0.82%. The viability, T/C [34] was 0.47%, the viability, T/C [35] was 1.36% and the viability, T/C [36] was 0.37%.
